According to US9656945B2, “3-acyl-ingenols II” (LEO LABORATORIES LIMITED, priority 2010, dated 2017):
Where two headings read alike, the source gives them in different places.

Legend:
Assay type in all cases: cell-based
[1] = test system: PMN's (polymorphonuclear leukocytes); test: Neutrophil oxidative burst assay; settings: Leukocyte, 40 min, read-out: Neutrophil oxidative burst Rel EC50 range
Experimental: PMN's (polymorphonuclear leukocytes) were isolated and purified from fresh buffy coats by sequential sedimentation, density centrifugation and lysis of contaminating erythrocytes. Buffy coats were incubated with 2% methocel for 30-45 min to differentially sediment red blood cells. The leukocyte-rich supernatant was transferred to lymphoprep tubes to remove mononuclear cells by density centrifugation (400×g, 30 min). The pellet was resuspended and any remaining erythrocytes lysed using 0.2% NaCl for 30 sec before restoring isotonicity by the addition of 1.2% NaCl. This step was repeated until the cell pellet appears relatively free of red blood cells. Cells were resuspended in DPBS (Dulbecco's Phosphate Buffered Saline) (w.o. Ca^2+, Mg^2+) and the concentration adjusted to 1.4×10^6 cells/ml in HBSS (Hanks Balanced Salt solution) (w Ca^2+, Mg^2+) containing 0.1% BSA (Bovine Serum Albumin) and 5 mM glucose just prior to assay initiation. Titrated reference and test compounds were pre-mixed with HE (Hydroethidine) (10 μM final assay concentration) before addition to 96-well plates containing 2.5×10^5 cells. Following 40 min incubation at RT, changes in the respiratory burst was estimated by measuring fluorescence at 579 nm (excitation: 485 nm) using an Envision plate reader.
Test compound titration curves were fitted to a four-parameter sigmoidal curve after normalizing the effect of the test compound to the effect of the positive control (5×10^−7 M PEP0005). Rel EC50 denotes the concentration of test compound producing an effect that is midway between the fitted top and bottom. Abs EC50 is the concentration of test compound that provokes a response corresponding to 50% of the maximal effect associated with the positive control (5×10^−7 M PEP0005).

[2] = test system: Primary human epidermal keratinocytes, HeKa; test: HeKa cytokine release (IL-8) assay
Experimental: Primary human epidermal keratinocytes, HeKa, were seeded (10.000 cells/well) in 96-well plates the day before the assay. Test compounds were diluted in DMSO (dimethyl sulfoxide) and further diluted in assay medium and pipetted into wells of 96 well-plates containing HeKa cells. The plates were incubated for 6 h at 37° C. in humidified air with 5% CO2. Plates are centrifuged briefly to spin down cells at 4° C., the supernatant was removed and analysed by Meso Scale Discovery (MSD) 4-spot cytokine assay (Pro-inflammatory II Ultra Sensitive kit, MSD, MD, USA). The MSD assay employs a sandwich immunoassay format where capture antibodies were coated in a patterned array on the bottom of the wells of a 4-Spot-Multi-MSD plate. Standard samples were incubated in the MULTI-SPOT plates as well, and the cytokine (IL-8) binds to its corresponding capture antibody spot. The cytokine level was quantitated on a SECTOR™ Imager using a cytokine-specific Detection Antibody labelled with MSD SULFO-TAG™ reagent.
Test compound titration curves were fitted to a four-parameter sigmoidal curve after normalizing the effect of the test compound to the effect of the positive control (1.5×10^−7 M PEP0005). Rel EC50 denotes the concentration of test compound producing an effect that is midway between the fitted top and bottom.

[3] = test system: HeLa cells (ATCC CCL-002); test: Necrosis assay; settings: Homo sapiens, 0.5 h, read-out: HeLa necrosis EC50 range
Experimental: HeLa cells (ATCC CCL-002) were grown in minimal essential medium (Invitrogen catalog no. 42360) containing 10% fetal bovine serum, 100 IU/ml penicillin and 100 μg/ml streptomycin. 4,000-6,000 cells were seeded into 96-well black ViewPlates-plates, clear bottom, (Perkin Elmer) in 100 μl medium and incubated overnight. Compounds were dissolved and pre-diluted in DMSO in 96-well polypropylene plates (Greiner) in a concentration range of 15 μM to 600 μM. At the time of the experiment cell plates were placed on heating blocks at 37° C., medium was removed and 40 μl fresh, pre-warmed medium was added per well. Cells were incubated for 15 min before addition of compounds. In parallel, 3 μl of compounds were diluted with 197 μl growth medium on a Tecan freedom-EVO pipetting station using 250 μl/s pipetting speed, in order to ensure effective mixing of the highly concentrated compound solutions with the aqueous phase. These pre-dilution plates were then equilibrated on heating blocks at 37° C. for 10 min. 80 μl pre-diluted compound were transferred manually to the corresponding wells containing HeLa cells yielding compound concentrations of 10 μM to 400 μM. Control conditions were 1% DMSO in growth medium (100% viability) and 400 μM ingenol mebutate in growth medium (0% viability). Plates were incubated on the heating blocks at 37° C. for 30 min. At the end of the incubation 10 μl PrestoBlue reagent (Invitrogen) were added to each well, plates were sealed with black seal, followed by incubation at 37° C. for 10 min with gentle shaking (150 rpm). Subsequently, plates were placed at room temperature for 20-30 min. Plates were read immediately after on an Envision Fluorescence reader (Perkin Elmer) with excitation at 535 nm and emission at 630 nm. Test compound titration curves were fitted to a four-parameter sigmoidal curve after normalizing the effect of the test compound to the effect of the positive control (4 10^−4 M PEP0005/ingenol mebutate). AbsEC50 denotes the concentration of test compound producing 50% effect.

[4] = 6 h, read-out: HeKa cytokine release (IL-8) Rel EC50 range

COc1ccccc1C(=O)O[C@H]1C(C)=C[C@]23C(=O)[C@@H](C=C(CO)[C@@H](O)[C@]12O)[C@H]1[C@@H](C[C@H]3C)C1(C)C [Compound 312, Ingenol 3-(2-methoxy-benzoate)]
EC50 [1]: < 20 nM
EC50 [2, 4]: 20 to 100 nM
EC50 [3]: < 150000 nM

COc1ccc(C(=O)O[C@H]2C(C)=C[C@]34C(=O)[C@@H](C=C(CO)[C@@H](O)[C@]23O)[C@H]2[C@@H](C[C@H]4C)C2(C)C)cc1 [Compound 313, Ingenol 3-(4-methoxy-benzoate)]
EC50 [1]: < 20 nM
EC50 [2, 4]: < 20 nM
EC50 [3]: < 150000 nM

CC1=C[C@]23C(=O)[C@@H](C=C(CO)[C@@H](O)[C@]2(O)[C@H]1OC(=O)c1ccc(F)cc1F)[C@H]1[C@@H](C[C@H]3C)C1(C)C [Compound 314, Ingenol 3-(2,4-difluoro-benzoate)]
EC50 [1]: < 20 nM
EC50 [2, 4]: < 20 nM
EC50 [3]: < 150000 nM

CC1=C[C@]23C(=O)[C@@H](C=C(CO)[C@@H](O)[C@]2(O)[C@H]1OC(=O)c1c(C)cccc1C)[C@H]1[C@@H](C[C@H]3C)C1(C)C [Compound 315, Ingenol 3-(2,6-dimethyl-benzoate)]
EC50 [1]: < 20 nM
EC50 [2, 4]: 20 to 100 nM
EC50 [3]: < 150000 nM

COc1cccc(OC)c1C(=O)O[C@H]1C(C)=C[C@]23C(=O)[C@@H](C=C(CO)[C@@H](O)[C@]12O)[C@H]1[C@@H](C[C@H]3C)C1(C)C [Compound 316, Ingenol 3-(2,6-dimethoxy-benzoate)]
EC50 [1]: 20 to 100 nM
EC50 [2, 4]: 20 to 100 nM
EC50 [3]: 150000 to 350000 nM

CC1=C[C@]23C(=O)[C@@H](C=C(CO)[C@@H](O)[C@]2(O)[C@H]1OC(=O)c1cccc2ccccc12)[C@H]1[C@@H](C[C@H]3C)C1(C)C [Compound 319, Ingenol 3-(naphthalene-1-carboxylate)]
EC50 [1]: < 20 nM
EC50 [2, 4]: < 20 nM
EC50 [3]: < 150000 nM

CC1=C[C@]23C(=O)[C@@H](C=C(CO)[C@@H](O)[C@]2(O)[C@H]1OC(=O)c1ccccc1-c1ccccc1)[C@H]1[C@@H](C[C@H]3C)C1(C)C [Compound 320, Ingenol 3-(2-phenyl-benzoate)]
EC50 [1]: < 20 nM
EC50 [2, 4]: < 20 nM
EC50 [3]: < 150000 nM

CC1=C[C@]23C(=O)[C@@H](C=C(CO)[C@@H](O)[C@]2(O)[C@H]1OC(=O)c1ccccc1Br)[C@H]1[C@@H](C[C@H]3C)C1(C)C [Compound 321, Ingenol 3-(2-bromo-benzoate)]
EC50 [1]: < 20 nM
EC50 [2, 4]: < 20 nM
EC50 [3]: < 150000 nM

CC1=C[C@]23C(=O)[C@@H](C=C(CO)[C@@H](O)[C@]2(O)[C@H]1OC(=O)c1ccccc1Oc1ccccc1)[C@H]1[C@@H](C[C@H]3C)C1(C)C [Compound 322, Ingenol 3-(2-phenoxy-benzoate)]
EC50 [1]: < 20 nM
EC50 [2, 4]: < 20 nM
EC50 [3]: < 150000 nM

CC1=C[C@]23C(=O)[C@@H](C=C(CO)[C@@H](O)[C@]2(O)[C@H]1OC(=O)c1ccccc1C(C)C)[C@H]1[C@@H](C[C@H]3C)C1(C)C [Compound 323, Ingenol 3-(2-isopropyl-benzoate)]
EC50 [1]: < 20 nM
EC50 [2, 4]: < 20 nM
EC50 [3]: < 150000 nM

CC1=C[C@]23C(=O)[C@@H](C=C(CO)[C@@H](O)[C@]2(O)[C@H]1OC(=O)c1ccccc1OC(C)C)[C@H]1[C@@H](C[C@H]3C)C1(C)C [Compound 324, Ingenol 3-(2-isopropoxy-benzoate)]
EC50 [1]: < 20 nM
EC50 [2, 4]: < 20 nM
EC50 [3]: < 150000 nM

CC1=C[C@]23C(=O)[C@@H](C=C(CO)[C@@H](O)[C@]2(O)[C@H]1OC(=O)c1c(C)cc(C)cc1C)[C@H]1[C@@H](C[C@H]3C)C1(C)C [Compound 325, Ingenol 3-(2,4,6-trimethyl-benzoate)]
EC50 [1]: < 20 nM
EC50 [2, 4]: < 20 nM
EC50 [3]: < 150000 nM

CC1=C[C@]23C(=O)[C@@H](C=C(CO)[C@@H](O)[C@]2(O)[C@H]1OC(=O)c1ccccc1N)[C@H]1[C@@H](C[C@H]3C)C1(C)C [Compound 330, Ingenol 3-(2-amino-benzoate)]
EC50 ([1]; 40 min incubation at RT, normalized to positive control 5×10^−7 M PEP0005): < 20 nM
EC50 ([2]; 6 h at 37° C., normalized to positive control 1.5×10^−7 M PEP0005, read-out: HeKa cytokine release (IL-8) Rel EC50 range): < 20 nM
EC50 ([3]; 30 min at 37° C., PrestoBlue, normalized to 4 10^−4 M PEP0005/ingenol mebutate): 150000 to 350000 nM

CC1=C[C@]23C(=O)[C@@H](C=C(CO)[C@@H](O)[C@]2(O)[C@H]1OC(=O)c1ccccc1NCc1ccccc1)[C@H]1[C@@H](C[C@H]3C)C1(C)C [Compound 331, Ingenol 3-(2-benzylamino-benzoate)]
EC50 [1]: < 20 nM
EC50 [2, 4]: < 20 nM
EC50 [3]: < 150000 nM

CC1=C[C@]23C(=O)[C@@H](C=C(CO)[C@@H](O)[C@]2(O)[C@H]1OC(=O)c1c(C)cccc1NCc1ccccc1)[C@H]1[C@@H](C[C@H]3C)C1(C)C [Compound 332, Ingenol 3-(2-benzylamino-6-methyl-benzoate)]
EC50 [1]: 20 to 100 nM
EC50 [2, 4]: < 20 nM
EC50 [3]: < 150000 nM

COc1cccc(NCc2ccccc2)c1C(=O)O[C@H]1C(C)=C[C@]23C(=O)[C@@H](C=C(CO)[C@@H](O)[C@]12O)[C@H]1[C@@H](C[C@H]3C)C1(C)C [Compound 333, Ingenol 3-(2-benzylamino-6-methoxy-benzoate)]
EC50 [1]: 20 to 100 nM
EC50 [2, 4]: < 20 nM
EC50 [3]: < 150000 nM

CC1=C[C@]23C(=O)[C@@H](C=C(CO)[C@@H](O)[C@]2(O)[C@H]1OC(=O)c1c(C)cccc1N)[C@H]1[C@@H](C[C@H]3C)C1(C)C [Compound 335, Ingenol 3-(2-amino-6-methyl-benzoate)]
EC50 [1]: < 20 nM
EC50 [2, 4]: < 20 nM
EC50 [3]: < 150000 nM

CC1=C[C@]23C(=O)[C@@H](C=C(CO)[C@@H](O)[C@]2(O)[C@H]1OC(=O)c1ccccc1Nc1ccccc1)[C@H]1[C@@H](C[C@H]3C)C1(C)C [Compound 336, Ingenol 3-(2-phenylamino-benzoate)]
EC50 [1]: < 20 nM
EC50 [2, 4]: < 20 nM
EC50 [3]: < 150000 nM

CNc1cccc(C)c1C(=O)O[C@H]1C(C)=C[C@]23C(=O)[C@@H](C=C(CO)[C@@H](O)[C@]12O)[C@H]1[C@@H](C[C@H]3C)C1(C)C [Compound 339, Ingenol 3-(2-methyl-6-methylamino-benzoate)]
EC50 [1]: 20 to 100 nM
EC50 [2, 4]: < 20 nM
EC50 [3]: < 150000 nM

CC1=C[C@]23C(=O)[C@@H](C=C(CO)[C@@H](O)[C@]2(O)[C@H]1OC(=O)c1c(N)cccc1Cl)[C@H]1[C@@H](C[C@H]3C)C1(C)C [Compound 340, Ingenol 3-(2-amino-6-chloro-benzoate)]
EC50 [1]: < 20 nM
EC50 [2, 4]: 20 to 100 nM
EC50 [3]: < 150000 nM
